Data from patent publication US20250129069A1, “TRIAZOLO WRN INHIBITORS” (Nimbus Wadjet, Inc., priority 2023, published 2025).

Tests used:
[1] = target: human Werner helicase (WRN, amino acids 517-1235 with L1074F point mutation) (Homo sapiens (Human), UniProt Q14191, L1074F); assay: WRN (BV08) ADP-Glo assay; type: biochemical; settings: human WRN (aa 517-1235, L1074F), read-out: ADP-Glo_hWRN_IC50
From the text: Bovine skin gelatin (BSG), dimethyl sulfoxide (DMSO), Pluronic F-127 and tris(2-carboxyethyl)phosphine hydrochloride solution (TCEP) were purchased from Sigma-Aldrich (St. Louis, MO) at the highest level of purity possible. Bicine buffer solution was purchased from Alfa Aesar (Tewksbury, MA) and compound NSC-617145 was purchased from Tocris (Minneapolis, MN). DNA duplex was synthesized at BGI (Shenzhen, China) and was composed of strand 1 with the sequence 5′-[…]-3′ (SEQ ID NO.: 1) and strand 2 with the sequence 5′-[…]-3′ (SEQ ID NO.: 2). DNA strands were annealed by heating to 95° C. for 5 minutes followed by slow cooling to room temperature. Compounds in 100% DMSO (0.1 μl) were spotted into a 384-well white polystyrene Optiplate-384 (Perkin Elmer; Waltham, MA) assay plate using a LabCyte Echo 550 (Agilent; Santa Clara, CA). DMSO (0.1 μl) was added to columns 12, rows A-H and column 24, rows I-P for the maximum signal control. Compound NSC-617145 (0.1 μl) was added to columns 12, rows I-P and 24, rows A-H for the minimum signal control (100% inhibition). Compounds/DMSO were preincubated for 15 minutes at 25° C. with 5 μl 2×WRN (BV08), prepared as described below, in assay buffer containing 20 mM Bicine (pH=7.5), 1 mM MgCl2, 10 mM KCl, 0.1% Pluronic F-127, 0.005% BSG, 1 mM TCEP. The reaction was initiated by the addition of 5 μl 2× substrate mixture in assay buffer and incubated for 60 minutes at 25° C. The final concentrations of the assay components were 0.15 nM WRN, 5 μM ATP, and 0.1 nM DNA duplex. The final DMSO concentration was 1% and the reference compound concentration (NSC-617145) used for the minimal signal control was 20 μM. The reaction was stopped by the addition of the ADP-Glo Kit components (Promega; Madison, WI) as directed and the relative luminescence units (RLU) were read on an Envision 2104 (Perkin Elmer; Waltham, MA).
% inhibition calculation:
% INH=(RLU MAX−RLU sample)/(RLU MAX−RLU MIN))×100
Where RLU=relative luminescence units, sample=signal in sample well, and MIN and MAX are the respective minimum and maximum signal controls. Four-parameter IC50 fit equation:
Y=Bottom+(Top−Bottom)/(1+(IC50/X)^Hill Slope)
Where top and bottom are normally allowed to float but may be fixed at 100 or 0 respectively in a 3-parameter fit. Y is the % inhibition and X is the compound concentration.
Molecular Biology and virus production. The DNA encoding human Werner helicase (Uniprot Q14191, amino acids 517-1235 with L1074F point mutation) was generated with codon-optimization for E. coli expression and subcloned into the pFastBac vector with a TEV cleavable 8×His tag (WRN—BV08). The baculovirus from the expression plasmid WRN—BV08 was generated from transfection and amplification following the manufacturer's instructions.
Sf9 cells grown in SF900II media were infected with 1:200 WRN—BV08 P2 virus and incubated for protein expression for 72 h at 27° C. The WRN protein was purified using the following protocol. The cell pellets were thawed and resuspended in buffer A (50 mM Tris, pH 7.5, 500 mM NaCl, 1 mM TCEP, 10% Glycerol) supplemented with 0.5% CHAPS, 1 mM PMSF, […] Leupeptin, 1 μg/ml Pepstatin, and the Pierce Universal Nuclease and cocktail tablet. Cleared lysates were loaded onto a Ni Sepharose™ excel column and washed with buffer A and bound protein was eluted with buffer A supplemented with 300 mM imidazole. The eluted protein was dialyzed against buffer A and digested by His-tagged TEV (1:5 ratio) overnight at 4° C. ZnCl2 was added into the sample at final 15 μM before loading onto a second Ni Sepharose™ excel column. Untagged WRN protein was eluted from the column with buffer A supplemented with 20 mM imidazole, dialyzed overnight into buffer B (50 mM Tris, pH 7.5, 1 mM TCEP, 10% Glycerol) supplemented with 150 mM NaCl and loaded onto a Heparin column. Proteins were eluted with a step gradient of buffer B supplemented with 150 mM, 200 mM, 300 mM and 500 mM NaCl. […]

[2] = system: p21 induction in HCT 116 cells; assay: p21 induction in cells (In-Cell Western, p21/GAPDH ratio); type: cell-based; settings: Homo sapiens, 24 h compound incubation, read-out: p21_EC50
Method: The colon carcinoma cell line HCT 116 was obtained from ATCC and cultured in growth medium consisting of Mccoy's 5A Medium (Gibco 16600108) supplemented with 10% FBS (Transgene FS201-02) and 100 units/mL penicillin-streptomycin (Gibco 15140122) and maintained at 37° C. under 5% CO2. On the day of seeding, 2,000 cells in 30 μL of culture media were plated per well to Poly-D-Lysine 384 Well Black Clear Plates (Biocoat 356663) and incubated overnight at 37° C. under 5% CO2. The following day, compounds were serially diluted in DMSO for a total of 11 test concentrations. The typical starting concentration of compounds was 10 μM with 2-fold dilutions. Next, 150 nL of diluted compound was added in duplicate to the assay plate, using an Echo 655 (Labcyte). The plate was centrifuged at 500 RPM for 1 min and then incubated at 37° C. under 5% CO2 for 24 h. After 24 h, medium was removed, and cells were fixed by adding 40 μL of 4% paraformaldehyde solution to each well and incubated for 20 min at room temperature. The plate was then washed 4 times with 100 μL per well of wash buffer (PBS with 0.1% Tween-20) using a microplate washer. Next, 30 μL of ice-cold methanol was added to each well and the plate was incubated at −20° C. for 10 min. The plate was washed 4 times with 100 μL per well of wash buffer by a microplate washer, then 30 μL per well of blocking buffer ((Intercept PBS blocking buffer (LI-COR 927-70001) with 0.05% Tween-20)) was added and the plate was incubated at room temperature with shaking for 2 h. Next, to each test well, 20 μL of primary antibody solution (p21 Wafl/CIP (12D1) RabbitmAb (Cell Signaling Technologies 2947) diluted 1:1000 and GAPDH (D4C6R) Mouse mAb (Cell Signaling Technologies 97166) diluted 1:2000 in blocking buffer) was added and the plate was placed at 4° C., overnight. The following day, the plate was washed 5 times with 100 μL per well of wash buffer using a microplate washer for 5 min. 20 μL per well of secondary antibody (IRDye 680CW Goat anti-Mouse IgG (H+L) (LI-COR 926-68070) diluted 1:2000 in Blocking Buffer and IRDye 800CW Goat anti-Rabbit IgG (H+L) (LI-COR 926-32211) diluted 1:2000 in Blocking Buffer) was then added and the plate was stored for 2 h in the dark at room temperature with shaking. The plate was then washed 4 times with 100 μL per well of wash buffer again using a microplate washer. Finally, the p21 signal and the GAPDH signal were quantified using a LI-COR Odyssey CLx Imager machine reading at 800 nm and 700 nm, respectively. Each plate contained DMSO control (low control) and an internal reference WRN inhibitor (high control) respectively. For quantitation, the 800 nm/700 nm ratio was calculated for each well to give fold p21 induction and then percent activation for each compound well was calculated as follows (100×(ratio cpd well-ratio low control)/(ratio high control−ratio low control). EC50 values for each compound was generated after non-linear regression curve fitting using commercially available software.

Chain of human Werner helicase (WRN, amino acids 517-1235 with L1074F point mutation) (Q14191 other isoform, or with tags, fused parts or gaps L1074F (already in the parent)): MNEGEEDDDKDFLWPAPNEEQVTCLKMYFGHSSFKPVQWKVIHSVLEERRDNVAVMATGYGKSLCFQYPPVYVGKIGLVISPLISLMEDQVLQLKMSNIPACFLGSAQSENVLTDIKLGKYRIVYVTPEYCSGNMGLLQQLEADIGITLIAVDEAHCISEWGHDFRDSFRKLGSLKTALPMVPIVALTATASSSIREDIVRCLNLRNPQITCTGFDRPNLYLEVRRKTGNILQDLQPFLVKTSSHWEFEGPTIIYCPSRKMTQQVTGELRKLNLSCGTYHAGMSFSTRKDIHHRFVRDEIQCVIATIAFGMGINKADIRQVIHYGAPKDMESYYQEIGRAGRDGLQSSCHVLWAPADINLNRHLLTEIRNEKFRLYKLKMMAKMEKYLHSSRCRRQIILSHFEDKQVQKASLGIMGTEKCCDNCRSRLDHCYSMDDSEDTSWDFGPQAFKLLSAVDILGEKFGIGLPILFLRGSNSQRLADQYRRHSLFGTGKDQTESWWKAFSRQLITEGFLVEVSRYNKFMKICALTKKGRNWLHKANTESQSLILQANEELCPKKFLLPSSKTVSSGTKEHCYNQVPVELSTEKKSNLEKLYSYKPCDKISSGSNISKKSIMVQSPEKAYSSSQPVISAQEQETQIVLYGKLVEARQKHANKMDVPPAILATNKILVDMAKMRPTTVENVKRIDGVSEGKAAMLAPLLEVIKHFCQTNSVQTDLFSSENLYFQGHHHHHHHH

SMILES	IC50 [1] [nM]	EC50 [2] [nM]
CCc1c(N2CCN(C(=O)c3ncnc(C)c3O)[C@H]3CC[C@@H]32)c(=O)c2nn(-c3ccnc(OC)c3)nc2n1CC(=O)NC1CC2(CCC2)C1 [Compound I-86, 2-{5-ethyl-6-[(1S,6S)-5-(5-hydroxy-6-methylpyrimidine-4-carbonyl)-2,5-diazabicyclo[4.2.0]octan-2-yl]-2-(2-methoxypyridin-4-yl)-7-oxo-2H,4H,7H-[1,2,3]triazolo[4,5-b]pyridin-4-yl}-N-{spiro[3.3]heptan-2-yl}acetamide]	5 to 50	–
CCc1c(N2CCN(C(=O)c3ncnc(C)c3O)CC2)c(=O)c2nn(-c3cc(C)n(C)n3)nc2n1CC(=O)Nc1ccc(C(F)(F)F)cc1Cl [Compound I-16, N-(2-chloro-4-(trifluoromethyl)phenyl)-2-(2-(1,5-dimethyl-1H-pyrazol-3-yl)-5-ethyl-6-(4-(5-hydroxy-6-methylpyrimidine-4-carbonyl)piperazin-1-yl)-7-oxo-2,7-dihydro-4H-[1,2,3]triazolo[4,5-b]pyridin-4-yl)acetamide]	5 to 50	–
CCc1c(N2CCN(C(=O)c3ncnc(C)c3O)[C@H]3CCC[C@@H]32)c(=O)c2nn(-c3ccnc(OC)c3)nc2n1CC(=O)NC12CC(C3CC3)(C1)C2 [Compound I-33, 2-{6-[(4aS,7aS)-4-(5-hydroxy-6-methylpyrimidine-4-carbonyl)-octahydro-1H-cyclopenta[b]pyrazin-1-yl]-5-ethyl-2-(2-methoxypyridin-4-yl)-7-oxo-2H,4H,7H-[1,2,3]triazolo[4,5-b]pyridin-4-yl}-N-{3-cyclopropylbicyclo[1.1.1]pentan-1-yl}acetamide]	–	≤ 500
CCc1c(N2CCN(C(=O)c3ncnc(C)c3O)CC2)c(=O)c2nn(C3=CCOCC3)nc2n1CC(=O)Nc1ccc(C(F)(F)F)cc1Cl [Compound I-13, N-(2-chloro-4-(trifluoromethyl)phenyl)-2-(2-(3,6-dihydro-2H-pyran-4-yl)-5-ethyl-6-(4-(5-hydroxy-6-methylpyrimidine-4-carbonyl)piperazin-1-yl)-7-oxo-2,7-dihydro-4H-[1,2,3]triazolo[4,5-b]pyridin-4-yl)acetamide]	5 to 50	–
CCc1c(N2CCN(C(=O)c3c(O)c(F)cc4ncoc34)[C@H]3CC[C@@H]32)c(=O)c2nn(C3=CCOCC3)nc2n1CC(=O)NC12CC(C3CC3)(C1)C2 [Compound I-194, N-{3-cyclopropylbicyclo[1.1.1]pentan-1-yl}-2-[2-(3,6-dihydro-2H-pyran-4-yl)-5-ethyl-6-[(1S,6S)-5-(5-fluoro-6-hydroxy-1,3-benzoxazole-7-carbonyl)-2,5-diazabicyclo[4.2.0]octan-2-yl]-7-oxo-2H,4H,7H-[1,2,3]triazolo[4,5-b]pyridin-4-yl]acetamide]	–	≤ 500
CCc1c(N2CCN(C(=O)c3ncnc(C)c3O)[C@H]3CC[C@@H]32)c(=O)c2nn(C3=CCC(OC)CC3)nc2n1CC(=O)NC12CC(C3CC3)(C1)C2 (stereo partly drawn) [Compound I-173, N-{3-cyclopropylbicyclo[1.1.1]pentan-1-yl}-2-{5-ethyl-6-[(1S,6S)-5-(5-hydroxy-6-methylpyrimidine-4-carbonyl)-2,5-diazabicyclo[4.2.0]octan-2-yl]-2-(4-methoxycyclohex-1-en-1-yl)-7-oxo-2H,4H,7H-[1,2,3]triazolo[4,5-b]pyridin-4-yl}acetamide]	–	≤ 500
CCc1c(N2CCN(C(=O)c3ncnc(C)c3O)[C@H]3CC[C@@H]32)c(=O)c2nn(-c3ccnc(C(F)F)c3)nc2n1CC(=O)NC12CC(C3CC3)(C1)C2 [Compound I-182, N-{3-cyclopropylbicyclo[1.1.1]pentan-1-yl}-2-{2-[2-(difluoromethyl)pyridin-4-yl]-5-ethyl-6-[(1S,6S)-5-(5-hydroxy-6-methylpyrimidine-4-carbonyl)-2,5-diazabicyclo[4.2.0]octan-2-yl]-7-oxo-2H,4H,7H-[1,2,3]triazolo[4,5-b]pyridin-4-yl}acetamide]	–	≤ 500
CCc1c(N2CCN(C(=O)c3ncnc(C)c3O)[C@H]3CC[C@@H]32)c(=O)c2nn(C3=CCOC(C)C3)nc2n1CC(=O)NC12CC(C3CC3)(C1)C2 (stereo partly drawn) [Compound I-172, N-{3-cyclopropylbicyclo[1.1.1]pentan-1-yl}-2-{5-ethyl-6-[(1S,6S)-5-(5-hydroxy-6-methylpyrimidine-4-carbonyl)-2,5-diazabicyclo[4.2.0]octan-2-yl]-2-(2-methyl-3,6-dihydro-2H-pyran-4-yl)-7-oxo-2H,4H,7H-[1,2,3]triazolo[4,5-b]pyridin-4-yl}acetamide]	–	≤ 500
CCc1c(N2CCN(C(=O)c3ncnc(C)c3O)CC2)c(=O)c2nn(C3=CCOCC3)nc2n1CC(=O)NC12CC(C(C)C)(C1)C2 [Compound I-38, 2-[2-(3,6-dihydro-2H-pyran-4-yl)-5-ethyl-6-[4-(5-hydroxy-6-methylpyrimidine-4-carbonyl)piperazin-1-yl]-7-oxo-2H,4H,7H-[1,2,3]triazolo[4,5-b]pyridin-4-yl]-N-[3-(propan-2-yl)bicyclo[1.1.1]pentan-1-yl]acetamide]	–	500 to 2000
